The values that follow come from patent US20100022509A1, “Inhibitors of MshC and Homologs Thereof, and Methods of Identifying Same” (priority 2006, published 2010).

pIC50: −log10 of the molar value. ≈ marks a conversion by molar mass, not a printed value.

Holding throughout (format): cell-based
In test [1] the test system is M. smegmatis. Kind of test: Growth of M. smegmatis parent and MSH mutant strains in the presence of INH. The protocol: Using the parental strain mc^2155, the Myco504 mutant in mshB that produces 5-10% of normal MSH in exponential growth, and the mutant strain 49 that produces 0% of normal MSH, the effect of 0-30 μg per ml INH upon growth was examined. […] This is seen in FIG. 13 for growth in the presence of 10 μg per ml INH.

In test [2] the test system is M. smegmatis mc^2155. Kind of test: Inhibitor studies with Mycobacterium smegmatis: growth. The protocol:
(§1) Inhibitor studies with Mycobaterium smagmatis. An exponential culture of M. smegmatis mc^2155 in Middlebrook 7H9 medium containing 0.05% Tween 80 and 1% glucose was used to inoculate a culture in the same medium but with 0.4% glucose to A600=0.05. The inhibitor NTF1836 was added from a stock solution in Me2SO at 0, 10, 20, 30 and 40 μM to duplicate 40 ml aliquots of the culture in 125 ml flasks to produce a final Me2SO content of ≦0.04%. The cells were incubated at 37° C. and 250 rpm. At A600˜0.25 and subsequent doublings in cell density, a volume of culture was removed sufficient to provide analysis of GlcN-Ins and MSH as described above.

The test system of test [3] is mycothiol biosynthesis in M. smegmatis mc^2155. Kind of test: Inhibitor studies with Mycobacterium smegmatis: GlcN-Ins and MSH content by HPLC. Conditions: 30 μM, after 12 h. Here is the method: as §1
Test [4] has as its system M. tuberculosis. Kind of test: Growth of M. tuberculosis in broth culture, 7 days (optical density, plate counts). Conditions: for OD600: day 7, starting OD600 0.08.
Test [5] relates to MshC within M. tuberculosis. Kind of test: Mycothiol and GlcN-Ins content of M. tuberculosis, day 7.
Test [6] has as its system Mycobacterium smegmatis mc^2155 ATCC 700084. The test can be described thus: MIC by broth dilution assay.
The test system of test [7] is Staphylococcus aureus. Kind of test: MIC by broth dilution assay. Conditions: for MIC: n = 3.
Test [8] has as its system Enterococcus faecalis ATCC 29212. Kind of test: MIC by broth dilution assay.

As for `NNC(=O)c1ccncc1` [INH, isoniazid], in test [1] (2 μg per ml INH and above), the “growth of strain 49 (0% MSH)” value is listed as “no effect” and the “growth of strain mc^2155” value is “became inhibited”. Besides, in test [1] (10 μg per ml INH), the “growth of strain 49 (0% MSH)” value is “grows at the same rate as in the absence of INH”, the “growth of strain Myco504 (5-10% MSH)” value was “markedly inhibited” and the “growth of strain mc^2155” value is “markedly inhibited”.
Consider `CN(CCCNC(=O)c1ccc2c(c1)N(Cc1cccc(Cl)c1)C(=O)c1ccccc1[S+]2[O-])C1CCCCC1` (centres unmarked) [NTF1836], for which the growth rate entry in test [2] (30 μM) is “half the normal rate”. Further, the growth result in test [2] (40 μM, after 8 h) is “completely inhibited”. In addition, the GlcN-Ins content entry in test [3] is “twice the normal level”. For the same compound, the OD600 in test [4] (20 uM) turned out to be 1.304 ± 0.014; in test [4] (30 uM), 0.600 ± 0.049; in test [4] (50 uM), 0.271; in test [4] (75 uM), 0.12. In test [4] (Mycobacterium tuberculosis, 168 h, 7 days, by optical density and by plate counts of viable bacteria, read-out: IC50 for growth inhibition of M. tuberculosis), the pIC50 is 4.52 to 4.70. Moreover, the GlcN-Ins in test [5] (20 uM) came to 2.77 ± 0.09 nmoles/10^9 bacteria; in test [5] (30 uM), 3.49 ± 0.10 nmoles/10^9 bacteria; in test [5] (50 uM), 4.28 nmoles/10^9 bacteria; in test [5] (75 uM), 4.22 nmoles/10^9 bacteria. Besides, the GlcN-Ins/mycothiol in test [5] (20 uM) amounted to 0.09; in test [5] (30 uM) it was 0.18; in test [5] (50 uM), 0.428; in test [5] (75 uM) it was 1.21. For the same compound, the mycothiol worked out at 27.8 ± 2.5 nmoles/10^9 bacteria in test [5] (20 uM), 19.1 ± 2.5 nmoles/10^9 bacteria in test [5] (30 uM), 10.0 nmoles/10^9 bacteria in test [5] (50 uM) and 3.5 nmoles/10^9 bacteria in test [5] (75 uM). In addition, the “growth inhibition, in words” value in test [6] (M. smegmatis), in test [7] (Staphylococcus aureus) and in test [8] was “inhibitory” throughout. In addition, the MIC in test [6] (Mycolicibacterium smegmatis, ATCC700084|MC^2155, Middlebrook 7H9 + 1% glucose, n = 3) was 16 µg/mL; in test [7] (ATCC25923, Staphylococcus aureus ATCC 25923, TSB), 128 µg/mL (≈ 227 µM); in test [7] (Staphylococcus aureus RN450, TSB) it was 64 µg/mL (≈ 113 µM); in test [8] (ATCC29212, Todd Hewitt, n = 3), 64 µg/mL (≈ 113 µM).
